Read-outs that look alike come from different tables or passages of the source.
Experiments:
NDM-1 = NDM-1 (Klebsiella pneumoniae, UniProt C7C422); test: biochemical; format: biochemical; conditions: read-out: NDM-1 IC50
[1] = tested on: Escherichia coli expressing NDM-1 (CLB30016); test: Antibiotic potentiation activity: synergistic concentration (MITC95) with imipenem, OD600 growth; format: cell-based; conditions: for Escherichia coli expressing NDM-1 (CLB 30016) MITC95: concentration giving 95% inhibition of bacterial growth
In short: (§1)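 Spectrophotometric growth readings were taken following 22–24 h at 35 °C. Before that, organisms in 1.1× CAMHB were mixed with imipenem, used at 4 μg/ml in assay, and test compound.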

[2] = tested on: Serratia marcescens expressing IMP-1 (CL5741); test: as above; format: cell-based; conditions: for Serratia marcescens expressing IMP-1 (CL5741) MITC95: concentration giving 95% inhibition of bacterial growth
In short: as §1

[3] = tested on: Klebsiella pneumoniae expressing VIM-1 (IHMA599644); test: as above; format: cell-based; conditions: for Klebsiella pneumoniae expressing VIM-1 (IHMA 599644) MITC95: concentration giving 95% inhibition of bacterial growth
In short: as §1

IMP-1 = IMP-1 (Serratia marcescens, UniProt P52699); test: biochemical; format: biochemical; conditions: read-out: IMP-1 IC50
IMP-1, sequence (P52699 whole entry, looked up): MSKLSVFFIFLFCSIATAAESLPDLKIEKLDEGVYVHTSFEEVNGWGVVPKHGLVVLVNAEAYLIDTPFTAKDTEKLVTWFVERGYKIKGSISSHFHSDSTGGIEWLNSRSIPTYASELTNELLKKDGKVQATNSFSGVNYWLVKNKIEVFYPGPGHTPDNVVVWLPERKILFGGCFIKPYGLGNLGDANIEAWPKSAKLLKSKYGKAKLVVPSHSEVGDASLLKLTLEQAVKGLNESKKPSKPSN

VIM-1 = VIM-1 (Pseudomonas aeruginosa (strain ATCC 15692 / DSM 22644 / CIP 104116 / JCM 14847 / LMG 12228 / 1C / PRS 101 / PAO1), UniProt A0A0F7KYQ8); test: Enzyme activity: determination of IC50, fluorescence assay with CCF2-FA substrate (VIM-1); format: biochemical
[4] = NDM-1 enzyme, CCF2-FA substrate
[5] = (CLB30016, NDM-1), 95% growth inhibition
[6] = Serratia marcescens CL5741 (IMP-1), 95% growth inhibition
[7] = Klebsiella pneumoniae IHMA599644 (VIM-1), 95% growth inhibition
[8] = IMP-1 enzyme, CCF2-FA substrate
[9] = VIM-1 enzyme, CCF2-FA substrate, read-out: VIM-1 IC50
[10] = fluorescence assay with CCF2-FA substrate
[11] = fluorescence assay with CCF2-FA substrate, read-out: VIM-1 IC50
[12] = CLB30016 (NDM-1), 95% inhibition of bacterial growth
[13] = CL5741 (IMP-1), 95% inhibition of bacterial growth
[14] = IHMA599644 (VIM-1), 95% inhibition of bacterial growth
[15] = VIM-1 IC50, fluorescence assay with CCF2-FA substrate

NDM-1, sequence (C7C422 whole entry, looked up, species assumed): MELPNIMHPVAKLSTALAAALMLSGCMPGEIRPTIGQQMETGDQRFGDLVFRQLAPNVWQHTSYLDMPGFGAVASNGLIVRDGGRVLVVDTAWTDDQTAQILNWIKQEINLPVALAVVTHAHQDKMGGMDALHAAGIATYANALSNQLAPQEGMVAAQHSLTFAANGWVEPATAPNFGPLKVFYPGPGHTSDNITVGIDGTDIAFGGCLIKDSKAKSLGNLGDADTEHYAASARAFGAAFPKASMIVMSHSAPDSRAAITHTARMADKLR

NS(=O)(=O)c1cccc(-c2cccc3ccoc23)c1-c1nn[nH]n1 [Example 522, 3-(Benzofuran-7-yl)-2-(2H-tetrazol-5-yl)benzenesulfonamide]
IC50 (NDM-1; [4]): 0.0034 µM | Escherichia coli MITC95 [1, 5]: 2.344 µM | Serratia marcescens MITC95 [2, 6]: 18.75 µM | Klebsiella pneumoniae MITC95 [3, 7]: 50 µM | IC50 (IMP-1; [8]): 0.263 µM | IC50 (VIM-1; [9]): 0.0529 µM

NS(=O)(=O)c1c(C(F)(F)F)ccc(N2CC[C@H](CO)[C@H](F)C2)c1-c1nnn[nH]1 [Example 663, 3-[(3S,4R)-3-fluoro-4-(hydroxymethyl)piperidin-1-yl]-2-(1H-tetrazol-5-yl)-6-(trifluoromethyl)benzenesulfonamide]
IC50 (NDM-1; [4]): 0.00246 µM | Escherichia coli MITC95 [1, 5]: 0.8906 µM | Serratia marcescens MITC95 [2, 6]: 0.125 µM | Klebsiella pneumoniae MITC95 [3, 7]: 3.125 µM | IC50 (IMP-1; [8]): 0.00294 µM | IC50 (VIM-1; [9]): 0.00079 µM

NCCc1cccc(-c2ccc(C(F)(F)F)c(S(N)(=O)=O)c2-c2nnn[nH]2)c1 [Example 734, 3′-(2-aminoethyl)-2-(1H-tetraozl-5-yl)-4-(trifluoromethyl)biphenyl-3-sulfonamide]
IC50 (NDM-1; [4]): 0.0314 µM | Escherichia coli MITC95 [1, 5]: 12.5 µM | Serratia marcescens MITC95 [2, 6]: 25 µM | Klebsiella pneumoniae MITC95 [3, 7]: 12.5 µM | IC50 (IMP-1; [8]): 0.0344 µM | IC50 (VIM-1; [9]): 0.00327 µM

NS(=O)(=O)c1cccc(-c2cnc(NC3CCCC3)nc2)c1-c1nnn[nH]1 [Example 124, 3-(2-(cyclopentylamino)pyrimidin-5-yl)-2-(1H-tetrazol-5-yl)benzenesulfonamide]
IC50 (NDM-1; [10]): 0.00434 µM | Escherichia coli expressing NDM-1 (CLB 30016) MITC95 [1]: 2.344 µM | Serratia marcescens expressing IMP-1 (CL5741) MITC95 [2]: 6.25 µM | Klebsiella pneumoniae expressing VIM-1 (IHMA 599644) MITC95 [3]: >200 µM | IC50 (IMP-1; [10]): 0.0689 µM | IC50 (VIM-1; [11]): 0.259 µM

NC1Cc2cccc(-c3ccc(C(F)(F)F)c(S(N)(=O)=O)c3-c3nnn[nH]3)c2C1 (stereo not drawn) [Example 836, 3-(2-aminoindan-4-yl)-2-(1H-tetrazol-5-yl)-6-(trifluoromethyl)benzenesulfonamide]
IC50 (NDM-1; [10]): 0.0549 µM | Escherichia coli MITC95 [1, 12]: 2.344 µM | Serratia marcescens MITC95 [2, 13]: 4.688 µM | Klebsiella pneumoniae MITC95 [3, 14]: 1.563 µM | IC50 (IMP-1; [10]): 0.134 µM | IC50 (VIM-1; [11]): 0.00239 µM

NS(=O)(=O)c1c(C(F)(F)F)ccc(-c2cccc3c2OCCN3)c1-c1nnn[nH]1 [Example 724, 3-(3,4-dihydro-2H-1,4-benzoxazin-8-yl)-2-(1H-tetrazol-5-yl)-6-(trifluoromethyl)benzenesulfon-amide]
IC50 (NDM-1; [4]): 0.00115 µM | Escherichia coli MITC95 [1, 5]: 6.25 µM | Serratia marcescens MITC95 [2, 6]: 6.25 µM | Klebsiella pneumoniae MITC95 [3, 7]: 12.5 µM | IC50 (IMP-1; [8]): 0.00244 µM | IC50 (VIM-1; [9]): 0.000862 µM

NS(=O)(=O)c1cccc(-c2ccc(CNCCc3nc[nH]n3)cc2)c1-c1nnn[nH]1 [Example 338, 4′-(((2-(1H-1,2,4-triazol-3-yl)ethyl)amino)methyl)-2-(1H-tetrazol-5-yl)-[1,1′-biphenyl]-3-sulfonamide]
IC50 (NDM-1; NDM-1 enzyme, CCF2-FA fluorescence assay): 0.00453 µM | Escherichia coli MITC95 ([1]; Escherichia coli expressing NDM-1 (CLB30016), 95% growth inhibition): 0.5859 µM | Serratia marcescens MITC95 ([2]; Serratia marcescens expressing IMP-1 (CL5741), 95% growth inhibition): 3.125 µM | Klebsiella pneumoniae MITC95 ([3]; Klebsiella pneumoniae expressing VIM-1 (IHMA599644), 95% growth inhibition): 25 µM | IC50 (IMP-1; IMP-1 enzyme, CCF2-FA fluorescence assay): 0.0754 µM | IC50 (VIM-1; VIM-1 IC50, VIM-1 enzyme, CCF2-FA fluorescence assay): 0.152 µM

NS(=O)(=O)c1cccc(-c2cccc3c2OCC3=O)c1-c1nn[nH]n1 [Example 521, 3-(3-Oxo-2,3-dihydrobenzofuran-7-yl)-2-(2H-tetrazol-5-yl)benzenesulfonamide]
IC50 (NDM-1; [4]): 0.00344 µM | Escherichia coli MITC95 [1, 5]: 1.563 µM | Serratia marcescens MITC95 [2, 6]: 12.5 µM | Klebsiella pneumoniae MITC95 [3, 7]: 12.5 µM | IC50 (IMP-1; [8]): 0.559 µM | IC50 (VIM-1; [9]): 0.0197 µM

NS(=O)(=O)c1cccc(-c2cnc3ccccc3c2)c1-c1nnn[nH]1 [Example 165, 3-(quinolin-3-yl)-2-(1H-tetrazol-5-yl)benzenesulfonamide]
IC50 (NDM-1; [10]): 0.00124 µM | Escherichia coli expressing NDM-1 (CLB 30016) MITC95 [1]: 0.5859 µM | Serratia marcescens expressing IMP-1 (CL5741) MITC95 [2]: 9.375 µM | Klebsiella pneumoniae expressing VIM-1 (IHMA 599644) MITC95 [3]: 37.5 µM | IC50 (IMP-1; [10]): 0.214 µM | IC50 (VIM-1; [11]): 0.0116 µM

N=C(N)N1CC(c2ccc(-c3ccc(CC4CCNCC4)c(S(N)(=O)=O)c3-c3nn[nH]n3)cc2)C1 [Example 603, 3-[4-[4-(4-piperidylmethyl)-3-sulfamoyl-2-(2H-tetrazol-5-yl)phenyl]phenyl]azetidine-1-carboxamidine]
IC50 (NDM-1; [4]): 0.0215 µM | Escherichia coli MITC95 [1, 5]: 3.125 µM | Serratia marcescens MITC95 [2, 6]: 1.563 µM | Klebsiella pneumoniae MITC95 [3, 7]: 1.563 µM | IC50 (IMP-1; [8]): 0.0319 µM | IC50 (VIM-1; [9]): 0.00473 µM

CC(C)(C)c1cccc(S(N)(=O)=O)c1-c1nnn[nH]1 [Example 161, 3-(tert-butyl)-2-(1H-tetrazol-5-yl)benzenesulfonamide]
IC50 (NDM-1; [10]): 0.0201 µM | Escherichia coli expressing NDM-1 (CLB 30016) MITC95 [1]: 1.563 µM | Serratia marcescens expressing IMP-1 (CL5741) MITC95 [2]: 6.25 µM | Klebsiella pneumoniae expressing VIM-1 (IHMA 599644) MITC95 [3]: 150 µM | IC50 (IMP-1; [10]): 0.306 µM | IC50 (VIM-1; [15]): 0.874 µM

Cn1cncc1C1CCN(c2ccnc(S(N)(=O)=O)c2-c2nnn[nH]2)CC1 [Example 230, 4-[4-(1-methyl-1H-imidazol-5-yl)piperidin-1-yl]-3-(1H-tetrazol-5-yl)pyridine-2-sulfonamide]
IC50 (NDM-1; [10]): 0.206 µM | Escherichia coli expressing NDM-1 (CLB 30016) MITC95 [1]: 1.563 µM | Serratia marcescens expressing IMP-1 (CL5741) MITC95 [2]: 18.75 µM | Klebsiella pneumoniae expressing VIM-1 (IHMA 599644) MITC95 [3]: 37.5 µM | IC50 (IMP-1; [10]): 0.797 µM | IC50 (VIM-1; [15]): 0.164 µM

Cc1cccn2c(-c3cccc(S(N)(=O)=O)c3-c3nnn[nH]3)cnc12 [Example 139, 3-(8-methylimidazo[1,2-a]pyridin-3-yl)-2-(1H-tetrazol-5-yl)benzenesulfonamide]
IC50 (NDM-1; [10]): 0.000637 µM | Escherichia coli expressing NDM-1 (CLB 30016) MITC95 [1]: 0.1953 µM | Serratia marcescens expressing IMP-1 (CL5741) MITC95 [2]: 6.25 µM | Klebsiella pneumoniae expressing VIM-1 (IHMA 599644) MITC95 [3]: 12.5 µM | IC50 (IMP-1; [10]): 0.0984 µM | IC50 (VIM-1; [11]): 0.00578 µM

NS(=O)(=O)c1c(C(F)(F)F)ccc(-c2cnc3ccoc3c2)c1-c1nnn[nH]1 [Example 711, 3-furo[3,2-b]pyridin-6-yl-2-(1H-tetrazol-5-yl)-6-(trifluoromethyl)benzenesulfon-amide]
IC50 (NDM-1; [4]): 0.00101 µM | Escherichia coli MITC95 [1, 5]: 6.25 µM | Serratia marcescens MITC95 [2, 6]: 12.5 µM | Klebsiella pneumoniae MITC95 [3, 7]: 6.25 µM | IC50 (IMP-1; [8]): 0.00354 µM | IC50 (VIM-1; [9]): 0.000224 µM

NS(=O)(=O)c1c(CC2CCNCC2)ccc(-c2ccc(C3CNC3)cc2)c1-c1nnn[nH]1 [Example 597, 3-[4-(azetidin-3-yl)phenyl]-6-(4-piperidylmethyl)-2-(1H-tetrazol-5-yl)benzenesulfonamide]
IC50 (NDM-1; [4]): 0.00886 µM | Escherichia coli MITC95 [1, 5]: 1.563 µM | Serratia marcescens MITC95 [2, 6]: 3.125 µM | Klebsiella pneumoniae MITC95 [3, 7]: 1.563 µM | IC50 (IMP-1; [8]): 0.046 µM | IC50 (VIM-1; [9]): 0.00124 µM

NC1CCC(N2CCC(c3ccc(-c4ccc(C(F)(F)F)c(S(N)(=O)=O)c4-c4nnn[nH]4)cc3)CC2)CC1 (stereo not drawn) [Example 794, 4′-[1-(4-aminocyclohexyl)piperidin-4-yl]-2-(1H-tetrazol-5-yl)-4-(trifluoromethyl)biphenyl-3-sulfonamide]
IC50 (NDM-1; [10]): 0.00644 µM | Escherichia coli MITC95 [1, 12]: 1.563 µM | Serratia marcescens MITC95 [2, 13]: 3.125 µM | Klebsiella pneumoniae MITC95 [3, 14]: 50 µM | IC50 (IMP-1; [10]): 0.00176 µM | IC50 (VIM-1; [11]): 0.011 µM

Source: patent US9708336B2, “Metallo-beta-lactamase inhibitors” (priority 2014, dated 2017)
